These results are taken from patent publication US20050048587A1, “Methods for identifying tolerance modulatory compounds and uses therefor” (TolerRx, Inc., priority 2003, published 2005).

Format in all cases: cell-based, human
One test concerns TGFβ by Treg cells. Put plainly: TGFβ production by differentiated Treg cells, multiplexed ELISA. Conditions: anti-CD3/CD-28 coated wells, 72 hrs with drug, supernatants. As to the method:
(§1) Resting, fully differentiated Th1, Th2 and Treg were seeded in wells sof a 96 well plate coated with anti-CD3 and CD-28. Cells (200,000 per well) were grown in the presence or absence of a known immunomodulatory drugs including rapamycin, cyclosporine A and Cellcept (MMF) (antiproliferative agent) at the concentrations indicated for 72 hrs prior to the collection of supernatants for measurement of secreted cytokines. Cytokine measurement were made using a multiplexed ELISA assay (Pierce/Endogen Searchlight Assay).

Another test deals with Tbox21. Put plainly: Tbox21 (TBX21) transcription factor mRNA expression, real-time PCR, in stimulated PBL. To be noted: PBL stimulated 72 hrs with anti-CD3/anti-CD28 in presence of agent; relative to stimulated PBL without agent. As for the experimental part: (§2) CD4+CD45RA+naïve, CD4+CD45RA−memory cells were prepared as follows. A Buffy Coat from human peripheral blood was obtained from the Oklahoma Blood Institute and processed as follows. Blood was diluted 1:2 with PBS without Ca^++Mg^++. 30 ml diluted blood was overlaid onto 15 ml Ficoll. Tubes were spun for ˜30 minutes at 2000 rpm. The Buffy cell layer was harvested into 25 ml PBS and brought to a volume of 45 ml total. Tubes were then spun ˜10 minutes at […]. Tubes were finally combined and washed with PBS. Approximately 10 percent of the cell preparation was set aside (X-VIVO 15 media+10% FCS) and is referred to hereinafter as “PBL.”
(§3) Cells (i.e., PDL, CD4+ naive, and CD4+ memory cells), were plated in six well dishes at approximately 3-4×10^6 cells/well. Prior to plating, wells were coated with αCD3/αCD28 antibodies. This was achieved by incubating the wells in the presence of antibodies for approximately 2 hrs at 37° C. Wells were subsequently washed with PBS. Cells were plated in X-VIVO 15 with 10% FCS. […]
(§4) 2.5 μl Assay on Demand reagent (Applied Biosystems) were added to 25 μl TaqMan Master MiX™ and samples brought to a total volume of 50 μl with RNAse-free water. […] Reactants were detected using an Applied Biosystems QPCR instrument (i.e., ABI Program 7000 SDS Sequence Detection System). […] The relative expression of the markers in each cell type and at each time point was also determined. […]
A general note: In qPCR the cycle at which signal appears reflects the starting amount.

For another test, the system named is Th1 cells. Put plainly: [3H] thymidine proliferation assay of differentiated Th1 cells. To be noted: anti-CD3/CD-28 coated wells, 72 hrs with drug, [3H] thymidine incorporation. As to the method:
(§5) Resting, fully differentiated Th1, Th2 and Treg were seeded in wells of a 96 well plate coated with anti-CD3 and CD-28. Cells (200,000 per well) were grown in the presence or absence of a known immunomodulatory drugs including rapamycin, cyclosporine A and Cellcept (MMF) (antiproliferative agent) at the concentrations indicated for 72 hrs prior to the addition of [^3H] thymidine. The cells were then incubated with [^3H] thymidine (0.5 μCi/well) for an additional 6-18 hrs and harvested. [^3H] thymidine incorporation was determined by liquid scintillation counting.
For orientation: Dividing cells build labelled thymidine or BrdU into new DNA.

The test system of the next test is GATA3. The experiment in a line: GATA3 transcription factor mRNA expression, real-time PCR, in stimulated PBL. Conditions: PBL stimulated 72 hrs with anti-CD3/anti-CD28 in presence of agent; relative to stimulated PBL without agent. As to the method: as §2, §3, §4
Another test relates to Th1 cytokines. Put plainly: Cytokine production by differentiated Th1 cells, multiplexed ELISA. Conditions: anti-CD3/CD-28 coated wells, 72 hrs with drug, supernatants. As for the experimental part:
as §1
In general terms: In an ELISA, binding on a coated surface is turned into a signal by an enzyme label.

Another test has as its system FOXP3. The experiment in a line: FOXP3 transcription factor mRNA expression, real-time PCR, in stimulated PBL. Conditions: PBL stimulated 72 hrs with anti-CD3/anti-CD28 in presence of agent; relative to stimulated PBL without agent. As to the method:
as §2, §3, §4

Test [1] deals with peripheral blood lymphocytes (PBLs). The experiment in a line: Assay of cell proliferation of stimulated PBL. Conditions: PBL stimulated with anti-CD3/anti-CD28, 72 hours. As for the experimental part: FIG. 3 graphically depicts the proliferation of peripheral blood lymphocytes (PBLs) at 72 hours post-stimulation with αCD3/αCD28 in the presence of the known immunomodulatory agents, rapamycin, cyclosporine, and Cellcept (MMF) (anti-proliferative agent). Proliferation is relative to that observed in control, stimulated PBL (in the absence of any added agent).
PBL were activated with anti-CD3 in combination with anti-CD28 in the presence or absence of the known immunomodulatory drugs including dexamethasone, rapamycin, cyclosporine A and Cellcept (antiproliferative agent) at the concentrations indicated. At 72 hours, RNA was prepared from the treated cells and the untreated controls. Real-time PCR was performed using cDNA from the RNA and using the primers and probes for the three transcription factors. The data are set forth in FIG. 2A-D. Dexamethasone is documented to result in a shift of in vivo immune responses towards characteristics recognized to be associated with Th2 cells when administered to both humans and animals. […] Rapamycin and cyclosporine are general immunosuppressants utilized to prevent allograft rejection in humans. Both drugs are known to utilize common cellular components. […] Cellcept is an anti-proliferative agent also used in organ transplantation. Its primary effect on the immune system is believed to be simple reduction of lymphocyte proliferation.

For the next test, the system named is Th2 cells. Put plainly: [3H] thymidine proliferation assay of differentiated Th2 cells. Conditions: anti-CD3/CD-28 coated wells, 72 hrs with drug, [3H] thymidine incorporation. As to the method:
as §5

In another test the test system is Th2 cytokines. The experiment in a line: Cytokine production by differentiated Th2 cells, multiplexed ELISA. To be noted: anti-CD3/CD-28 coated wells, 72 hrs with drug, supernatants. As for the experimental part:
as §1

In another test the test system is Treg cells. The experiment in a line: [3H] thymidine proliferation assay of differentiated Treg cells. To be noted: anti-CD3/CD-28 coated wells, 72 hrs with drug, [3H] thymidine incorporation. As to the method: as §5

In the case of `COc1c(C)c2c(c(O)c1C/C=C(\C)CCC(=O)OCCN1CCOCC1)C(=O)OC2` [Cellcept], in the test on TGFβ by Treg cells, the “effect on production of TGFβ by Treg cells” value is given as “does not suppress any cytokine measured except for TGFβ in T reg cells”. Besides, the “effect on Tbox21/TBX21 (Th1 transcription factor) expression” value in the test on Tbox21 was “did not affect”. Also, the “effect on proliferation of Th1 cells” value in the test on Th1 cells is listed as “equally inhibited the expansion of all cell types in a dose dependent manner”. Besides, the “effect on GATA3 (Th2 transcription factor) expression” value in the test on GATA3 is on record as “did not affect”. Further, the “effect on Th1 cytokine production” value in the test with Th1 cytokines was “does not suppress”. In addition, in the test with FOXP3, the “effect on FOXP3 (Treg transcription factor) expression” value is “did not affect”. Besides, the “effect on cell proliferation” value in test [1] is on record as “dose-dependent inhibition of proliferation”. Moreover, the “effect on proliferation of Th2 cells” value with Th2 cells is recorded as “equally inhibited the expansion of all cell types in a dose dependent manner”. Moreover, the “effect on Th2 cytokine production” value in the test on Th2 cytokines was “does not suppress”. The “effect on proliferation (expansion) of Treg cells” value in the test with Treg cells was “equally inhibited the expansion of all cell types in a dose dependent manner”.

On to TGFβ, for which the “effect on FOXP3 (Treg transcription factor) expression” value in the test on FOXP3 is reported as “induced”.

B1: IL4: cytokine known to initiate the differentiation of Th2 cells (protein, UniProt P05112 25-153, looked up)
Interleukin-4: HKCDITLQEIIKTLNSLTEQKTLCTELTVTDIFAASKNTTEKETFCRAATVLRQFYSHHEKDTRCLGATAQQFHRHKQLIRFLKRLDRNLWGLAGLNSCPVKEANQSTLENFLERLKTIMREKYSKCSS
As to B1, the “effect on GATA3 (Th2 transcription factor) expression” value with GATA3 is “clearly increased”.
